Key:
[1] = tested on: model mice with hyperoxia-induced retinopathy; settings: intravitreally administered; Non-Patent Document 6; cited from earlier work
[2] = tested on: VEGF-induced neovascularization; settings: Non-Patent Documents 2 and 3; cited from earlier work
diabetic model rats = settings: intravitreally administered; Non-Patent Documents 4 and 5; cited from earlier work
[3] = tested on: mice OIR (Oxygen-Induced Retinopathy) model; test: Mice OIR (oxygen-induced retinopathy) model, flat-mounted retina; assay type: in vivo, C57BL/6JJcl mice; settings: 0.4% solution, ocular instillation 20 μL three times a day, day 12 to day 17 after birth, flat mount
Description: The effectiveness of (S)-(−)-1-(4-fluoro-5-isoquinolinesulfonyl)-2-methyl-1,4-homopiperazine (compound 1) in a mice OIR model commonly used as a model of ischemic retinopathy such as diabetic retinopathy was examined in the following manner. Compound 1 solutions: 0.4% solution, 0.8% solution (instillation volume: 20 μL) Fasudil solution: 0.4% solution (instillation volume: 20 μL) Test animals: C57BL/6JJcl mice (sex: male, 8 to 14 mice per group) C57BL/6JJcl mice born on the same day were reared in a 75%-oxygen environment from day 7 after birth, and were then transferred to a normal indoor environment on day 12 after birth to start administration by ocular instillation. Test groups were a saline instillation group (control), a 0.4% compound 1 solution instillation group, a 0.8% compound 1 solution instillation group, and a 0.4% fasudil solution instillation group, and saline, the compound 1 solution, or the fasudil solution was administered by ocular instillation three times a day. On day 17 after birth, ischemic retinal areas (non-perfused areas) and neovascular areas were quantified for evaluation by flat-mounting or fluorescein fundus angiography. More specifically, 1 g/kg of pentobarbital (Nembutal) was administered intraperitoneally for euthanasia under deep anesthesia, and then both eyeballs were excised and fixed with 4% paraformaldehyde (PFA) at 37° C. for 1 hour, and the corneal limbus was circumferentially incised to remove the cornea and iris from the eyeball. Then, after fixation with 4% PFA at 37° C. for 1 hour, the lens, sclera, and choroid were removed, and the eye cup including the retina was isolated. Further, the retina was fixed with 4% PFA at 37° C. for 3 hours, washed with PBS three times (15 min per wash, 37° C.), dehydrated (methanol 50% 100%, 10 min per methanol treatment, 37° C.), washed with PBS three times (15 min per wash, 37° C.), and blocked with Blocking Buffer (1% BSA, 0.5% Triton-X in PBS) for 60 minutes (37° C.). Then, the retina was treated with a primary antibody (0.7% FITC-conjugates Anti-lectin Ab in PBS, 4° C., overnight) and washed with PBS three times (15 min per wash, 37° C.). Then, 4 to 6 cuts were radially made in the eye cup, and the flat-mounted retina was covered with Crystal Mount. Then, the image of the flat-mounted retina was taken with a fluorescence microscope (BZ-9000, KEYENCE Corp, Osaka, Japan), and the proportion of the non-perfused area to the entire retina and the proportion of the neovascular area to the entire retina were calculated by the following formulas in NIH image J software. The thus obtained values were converted to relative values by regarding the obtained values of the saline instillation group (control) as 100%, and statistical analysis was performed by Wilcoxon test. Non-perfused area=area of avascular region/area of entire retina Neovascular area=area of neovascular region/area of entire retina

SMILES	effect on retinal neovascularization [1]	effect on VEGF-induced neovascularization [2]	effect on endothelial cells in diabetic model rats (diabetic model rats)	relative value of the neovascular area (saline instillation group = 100%) [3] [%]	relative value of the non-perfused area (saline instillation group = 100%) [3] [%]
C[C@@H](N)[C@H]1CC[C@H](C(=O)Nc2ccncc2)CC1 [Y-27632]	effect of suppressing retinal neovascularization	effect of inhibiting VEGF-induced neovascularization			
O=S(=O)(c1cccc2cnccc12)N1CCCNCC1 [fasudil, reference compound]		effect of inhibiting VEGF-induced neovascularization	effect of protecting endothelial cells	102.2	107.7
